BindingDB's records for doi:10.1021/jm801490z (Nantong University, 2021)

Columns and labels:
[1] = molecular target: T1, Replicase polyprotein 1ab (Severe acute respiratory syndrome coronavirus 2, UniProt P0DTD1); assay: Inhibition of SARS-CoV-2 3CL protease expressed in Escherichia coli using Dabcyl-KTSAVLQSGFRKM-E(Edans)-NH2 as substrate preincubated for 30 mins followed by substrate addition and measured after 3 hrs
[2] = molecular target: T1, Replicase polyprotein 1ab; assay: Inhibition of SARS-CoV-2 Main protease (3264 to 3569 residues) expressed in Escherichia coli BL21-Gold (DE3) using Dabcyl-KTSAVLQSGFRKM-E(Edans)-NH2 as substrate by FRET assay

Compound | IC50 [1] | IC50 [2]
Cn1nc(-c2ccc(C(F)(F)F)cc2)nc2c(=O)n(C)c(=O)cc1-2 | 260 nM | 
CC(C)(C)OC(=O)Nc1ccn([C@@H](CC2CC2)C(=O)N[C@@H](C[C@@H]2CCNC2=O)C(=O)C(=O)NCc2ccccc2)c(=O)c1 |  | 670 nM
